Measurements reported in paper PMC10661964 (Current Drug Metabolism, 2023).
Read-outs that look alike come from different tables or passages of the source.

Assays:
Assay in all cases: CYP inhibition with probe substrate
Assay type in all cases: in vitro ADME
[1] = molecular target: T1, CYP 1A2 (Homo sapiens, UniProt P05177); settings: probe substrate phenacetin
T1 sequence (P05177 1-516): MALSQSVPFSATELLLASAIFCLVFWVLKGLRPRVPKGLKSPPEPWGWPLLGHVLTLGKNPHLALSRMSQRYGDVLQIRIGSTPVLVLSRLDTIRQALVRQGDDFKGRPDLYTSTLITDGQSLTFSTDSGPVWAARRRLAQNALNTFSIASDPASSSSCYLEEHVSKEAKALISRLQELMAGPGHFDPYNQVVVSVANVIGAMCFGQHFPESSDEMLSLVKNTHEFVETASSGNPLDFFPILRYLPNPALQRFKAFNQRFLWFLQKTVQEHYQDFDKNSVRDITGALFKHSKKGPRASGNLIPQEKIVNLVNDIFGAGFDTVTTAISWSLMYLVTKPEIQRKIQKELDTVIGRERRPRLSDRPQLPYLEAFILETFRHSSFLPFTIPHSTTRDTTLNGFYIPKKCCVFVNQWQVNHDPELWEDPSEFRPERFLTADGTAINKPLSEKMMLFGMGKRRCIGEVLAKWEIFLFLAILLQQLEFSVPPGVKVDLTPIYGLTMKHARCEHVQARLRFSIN
Excerpt: (§1) The inhibition of cytochrome P450 (CYP) isoforms and a range of cellular transporters (except multidrug and toxin extrusion [MATE] proteins), as well as the induction of CYP isoforms were investigated using previously described methods.

[2] = molecular target: T2, CYP 2A6 (Homo sapiens, UniProt P11509); settings: coincubation, probe substrate coumarin; read-out: Co- IC50
T2 sequence (P11509 1-494): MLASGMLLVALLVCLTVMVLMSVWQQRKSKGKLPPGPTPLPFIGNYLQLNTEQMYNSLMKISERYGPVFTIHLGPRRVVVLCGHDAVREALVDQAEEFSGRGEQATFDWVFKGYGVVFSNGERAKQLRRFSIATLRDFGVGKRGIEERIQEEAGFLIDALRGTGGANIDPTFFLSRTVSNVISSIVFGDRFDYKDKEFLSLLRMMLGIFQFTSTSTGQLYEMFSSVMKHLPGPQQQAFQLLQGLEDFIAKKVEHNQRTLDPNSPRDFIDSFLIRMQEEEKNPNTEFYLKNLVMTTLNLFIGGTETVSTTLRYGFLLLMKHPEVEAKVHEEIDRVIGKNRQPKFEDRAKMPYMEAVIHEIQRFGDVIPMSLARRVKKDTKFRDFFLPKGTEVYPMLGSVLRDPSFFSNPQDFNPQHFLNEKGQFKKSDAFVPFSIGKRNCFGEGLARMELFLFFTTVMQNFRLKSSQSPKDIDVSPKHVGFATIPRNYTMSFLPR
Excerpt: as §1

[3] = molecular target: T3, CYP 2B6 (Homo sapiens, UniProt P20813); settings: probe substrate bupropion
T3 sequence (P20813 1-491): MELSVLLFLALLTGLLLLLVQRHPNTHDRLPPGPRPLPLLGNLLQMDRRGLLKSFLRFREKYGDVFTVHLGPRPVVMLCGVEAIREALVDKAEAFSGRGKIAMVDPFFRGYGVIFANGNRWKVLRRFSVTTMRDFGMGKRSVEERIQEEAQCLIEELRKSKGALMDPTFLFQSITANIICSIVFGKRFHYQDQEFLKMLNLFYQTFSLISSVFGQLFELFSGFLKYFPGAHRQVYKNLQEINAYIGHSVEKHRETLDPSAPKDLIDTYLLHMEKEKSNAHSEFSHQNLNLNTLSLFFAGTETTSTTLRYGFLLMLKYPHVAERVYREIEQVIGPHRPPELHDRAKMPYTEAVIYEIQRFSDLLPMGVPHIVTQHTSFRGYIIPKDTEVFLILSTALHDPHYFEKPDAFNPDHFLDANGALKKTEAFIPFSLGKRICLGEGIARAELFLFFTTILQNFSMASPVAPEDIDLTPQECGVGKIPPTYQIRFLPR
Excerpt: as §1

[4] = molecular target: T4, CYP 2C8 (Homo sapiens, UniProt P10632); settings: probe substrate amodiaquine
T4 sequence (P10632 1-490): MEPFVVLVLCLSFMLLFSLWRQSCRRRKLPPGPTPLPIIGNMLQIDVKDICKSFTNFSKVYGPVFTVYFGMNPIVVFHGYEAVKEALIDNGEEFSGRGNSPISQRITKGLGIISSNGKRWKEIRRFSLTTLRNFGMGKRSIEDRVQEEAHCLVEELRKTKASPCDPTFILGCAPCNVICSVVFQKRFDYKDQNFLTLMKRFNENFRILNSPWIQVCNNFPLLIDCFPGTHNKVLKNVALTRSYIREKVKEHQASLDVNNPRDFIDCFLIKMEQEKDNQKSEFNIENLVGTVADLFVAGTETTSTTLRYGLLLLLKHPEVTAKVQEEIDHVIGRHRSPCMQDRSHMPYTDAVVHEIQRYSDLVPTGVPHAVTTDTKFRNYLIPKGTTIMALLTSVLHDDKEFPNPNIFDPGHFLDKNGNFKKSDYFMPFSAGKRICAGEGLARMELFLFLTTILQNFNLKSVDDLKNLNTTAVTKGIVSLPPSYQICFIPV
Excerpt: as §1

[5] = molecular target: CYP 2C9 (Homo sapiens, UniProt P11712); settings: probe substrate diclofenac
Excerpt: as §1

[6] = molecular target: CYP 2D6 (Homo sapiens, UniProt P10635); settings: probe substrate dextromethorphan
Excerpt: as §1

[7] = molecular target: CYP 2E1 (Homo sapiens, UniProt P05181); settings: coincubation, probe substrate chlorzoxazone; read-out: Co- IC50
Excerpt: as §1

[8] = 30-min preincubation, read-out: Pre- IC50 (+ NADPH)
[9] = coincubation, read-out: Co- IC50

Sequence of CYP 2E1 (P05181 whole entry): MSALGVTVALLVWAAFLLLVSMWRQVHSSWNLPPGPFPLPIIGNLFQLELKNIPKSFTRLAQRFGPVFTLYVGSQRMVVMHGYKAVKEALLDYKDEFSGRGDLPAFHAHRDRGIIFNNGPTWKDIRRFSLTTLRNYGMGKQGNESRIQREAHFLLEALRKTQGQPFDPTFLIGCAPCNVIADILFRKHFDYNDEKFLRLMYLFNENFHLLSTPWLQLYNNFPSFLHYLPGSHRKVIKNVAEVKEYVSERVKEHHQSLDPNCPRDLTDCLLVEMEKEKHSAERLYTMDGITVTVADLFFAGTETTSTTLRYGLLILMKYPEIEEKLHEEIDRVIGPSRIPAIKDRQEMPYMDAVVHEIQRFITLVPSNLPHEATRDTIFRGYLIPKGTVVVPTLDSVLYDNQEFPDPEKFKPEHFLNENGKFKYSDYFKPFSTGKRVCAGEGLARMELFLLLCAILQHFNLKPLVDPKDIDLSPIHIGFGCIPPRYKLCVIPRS
Sequence of CYP 2C9 (P11712 whole entry): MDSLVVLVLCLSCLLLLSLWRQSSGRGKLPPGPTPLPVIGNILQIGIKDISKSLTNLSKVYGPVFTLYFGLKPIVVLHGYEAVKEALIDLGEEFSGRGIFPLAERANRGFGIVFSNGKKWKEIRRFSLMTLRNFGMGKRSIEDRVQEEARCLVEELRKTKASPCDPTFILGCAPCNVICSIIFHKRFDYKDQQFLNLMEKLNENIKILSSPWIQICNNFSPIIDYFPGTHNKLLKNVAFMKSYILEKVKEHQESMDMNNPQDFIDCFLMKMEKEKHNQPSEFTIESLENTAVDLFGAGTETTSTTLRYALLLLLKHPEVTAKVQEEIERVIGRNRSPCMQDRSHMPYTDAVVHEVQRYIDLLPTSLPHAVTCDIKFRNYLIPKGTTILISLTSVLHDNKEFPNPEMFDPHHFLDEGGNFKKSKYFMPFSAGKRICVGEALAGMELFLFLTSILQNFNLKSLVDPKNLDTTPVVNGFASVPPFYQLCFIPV
Sequence of CYP 2D6 (P10635 whole entry): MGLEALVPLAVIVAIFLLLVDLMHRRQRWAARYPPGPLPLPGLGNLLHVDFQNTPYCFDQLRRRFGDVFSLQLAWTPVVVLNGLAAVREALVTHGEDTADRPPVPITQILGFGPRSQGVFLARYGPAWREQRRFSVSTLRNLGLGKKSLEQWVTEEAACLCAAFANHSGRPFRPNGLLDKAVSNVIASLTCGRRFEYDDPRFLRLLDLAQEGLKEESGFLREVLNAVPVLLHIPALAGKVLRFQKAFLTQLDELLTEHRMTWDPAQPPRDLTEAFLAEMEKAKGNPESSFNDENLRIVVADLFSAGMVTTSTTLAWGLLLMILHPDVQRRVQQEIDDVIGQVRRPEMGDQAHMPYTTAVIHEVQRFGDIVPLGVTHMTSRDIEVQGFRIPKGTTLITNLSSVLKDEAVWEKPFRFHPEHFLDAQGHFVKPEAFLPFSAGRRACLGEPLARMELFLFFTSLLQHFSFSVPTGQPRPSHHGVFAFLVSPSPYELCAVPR

Row | SMILES | IC50 [1, 8] [µM] | IC50 [1, 9] [µM] | TDI (time-dependent inhibition) [1] | IC50 [2] [µM] | IC50 [3, 8] [µM] | IC50 [3, 9] [µM] | TDI (time-dependent inhibition) [3] | IC50 [4, 8] [µM] | IC50 [4, 9] [µM] | TDI (time-dependent inhibition) [4] | IC50 [5, 8] [µM] | IC50 [5, 9] [µM] | TDI (time-dependent inhibition) [5] | IC50 [6, 8] [µM] | IC50 [6, 9] [µM] | TDI (time-dependent inhibition) [6] | IC50 [7] [µM]
1 | CC1CS(=O)(=O)CCN1n1cc(SCC(N)C(=O)O)ccc1=O (stereo not drawn) [M-4] | > 20 | > 20 | No | > 20 | > 20 | > 20 | No | > 20 | > 20 | No | > 20 | > 20 | No | > 20 | > 20 | No | > 20
2 | CC1CS(=O)(=O)CCN1N (stereo not drawn) [M-6] | > 100 | > 100 | No | > 100 | > 100 | > 100 | No | > 100 | > 100 | No | > 100 | > 100 | No | > 100 | > 100 | No | > 100
3 | CC1CS(=O)(=O)CCN1/N=C/c1ccc([N+](=O)[O-])o1 (stereo not drawn) [Nifurtimox, (E)-N-(3-methyl-1,1-dioxo-1,4-thiazinan-4-yl)-1-(5-nitrofuran-2-yl) methanimine, reference compound] | > 50 | > 50 | No | > 50 | > 50 | > 50 | No | > 50 | > 50 | No | > 50 | > 50 | No | > 50 | > 50 | No | > 50
